From US20240327354A1, “GRAM-NEGATIVE BACTERIA EFFLUX PUMP INHIBITORS” (INSTITUT NATIONAL DE LA SANTÉ ET DE LA RECHERCHE MÉDICALE, priority 2021, published 2024)
Structures can show the parent of a compound that is named as a salt.

Assays:
E. coli BW25113 = assay: Assay 1: growth inhibition of E. coli by sub-inhibitory pyridomycin in combination with examples (resazurin reduction); format: cell-based, Escherichia coli; details: read-out: EC50 on E. coli with 8 μg/mL of pyridomycin, 8 μg/mL pyridomycin, 5 h, 37° C.
From the text: (§1) Escherichia coli BW25113 (CGSC 7636) and its derivatives E. coli ΔtolC (JW5503-1, ΔtolC732::kan, CGSC 11430), E. coli ΔacrA (JW0452-3, ΔacrA748::kan, CGSC 11843) and E. coli ΔacrB (JW0451-2, ΔacrB747::kan, CGSC 8609) were obtained from E. coli Genetic Stock Center (CGSC, New Haven, Connecticut) and originated from the Keio Collection (Baba T et al, Mol Sys Biol, 2006). Klebsiella pneumoniae (LMG 2095/ATCC 13883) and K. pneumoniae (ATCC43816), Pseudomonas aeruginosa (PAO1), Acinetobacter baumannii (LMG 1025, ATCC 17978), were obtained from ATCC or BCCM/LMG Bacteria Collection. All bacteria were grown and tested in cation-adjusted Mueller-Hinton broth (CAMHB; BD Difco) at 37° C. For conservation, log phase bacteria were frozen (−80° C.) in CAMHB supplemented with 15% glycerol.
Briefly, E. coli BW25113 were diluted from frozen or growing stocks to an OD600 of 0.0004-0.001 in CAMHB. […] E. coli BW25113 viability was evaluated using the resazurin reduction assay, and measured by fluorescence (POLARstar Omega, BMG Labtech: Ex: 530 nm Em: 590 nm). EC50 were defined as the compound concentration that prevented 50% of resazurin turnover compared to the non-treated bacteria.

[1] = tested on: A. baumannii LMG 1025 (ATCC 17978); assay: Assay 2: growth inhibition of A. baumannii by sub-inhibitory chloramphenicol in combination with examples (resazurin reduction); format: cell-based, Acinetobacter baumannii; details: read-out: EC90 on A. baumannii with 10 μg/mL of chloramphenicol, 10 μg/mL chloramphenicol, 5 h or 24 h, 37° C.
From the text: as §1
Measurement of Growth Inhibition of A. baumannii Strains by Sub Inhibitory Concentrations of Chloramphenicol in Combination with Examples 1-137
For the evaluation of the dose dependent activity of examples 1-137, their ability to boost the antibacterial activity of sub-inhibitory concentrations chloramphenicol was determined. Briefly, A. baumannii LMG 1025 (ATCC 17978) were diluted from frozen or growing stocks to an OD600 of 0.001 in CAMHB. The bacterial suspension was then used as such (no-antibiotic control to evaluate EPI activity), or spiked with chloramphenicol at a final concentration of 10 μg/mL. Bacteria were then added to microplates carrying serial dilutions of the compounds examples 1-137, and incubated for (5 h or 24 h, 37° C.). Bacterial viability was evaluated using the resazurin reduction assay, and measured by fluorescence (POLARstar Omega, BMG Labtech: Ex: 530 nm Em: 590 nm). […] were defined as the compound concentration that prevented 90% of resazurin turnover compared to the non-treated bacteria.

Structure (SMILES) | EC50 (E. coli BW25113) [µM] | EC90 [1] [µM]
FC(F)(F)c1cnc(N2CC3CC2CN3)c(Cl)c1 [Example 15, (1S,4S)-2-[3-chloro-5-(trifluoromethyl)-2-pyridyl]-2,5-diazabicyclo[2.2.1]heptane;formic acid] | 100 to 500 | 100 to 500
Ic1cc2ccccc2nc1N1CCNCC1 [Example 52, 3-iodo-2-piperazin-1-yl-quinoline;hydrochloride] | < 5 | 100 to 500
Brc1cnc(N2CCCNCC2)c2ccccc12 [Example 8, 4-bromo-1-(1,4-diazepan-1-yl)isoquinoline] | 5 to 100 | 5 to 100
Clc1nc2ccccc2nc1N1CC2CCC(C1)N2 [Example 48, 2-chloro-3-(3,8-diazabicyclo[3.2.1]octan-3-yl)quinoxaline;hydrochloride] | 5 to 100 | 100 to 500
FC(F)(F)c1cnc(N2CCNCC2)c(Br)c1 [Example 17, 1-[3-bromo-5-(trifluoromethyl)-2-pyridyl]piperazine; hydrochloride] | 5 to 100 | 100 to 500
O=C(OCCc1ccccc1)c1cnc(N2CCNCC2)c(Cl)c1 [Example 30, 2-phenylethyl 5-chloro-6-piperazin-1-yl-pyridine-3-carboxylate;hydrochloride] | 5 to 100 | 100 to 500
FC(F)(F)c1cc(I)cnc1N1CCNCC1 [Example 21, 1-[5-iodo-3-(trifluoromethyl)-2-pyridyl]piperazine; hydrochloride] | 5 to 100 | 100 to 500
Clc1ccc2nc(Cl)c(N3CCNCC3)cc2c1 [Example 41, 2,6-dichloro-3-piperazin-1-yl-quinoline;hydrochloride] | 5 to 100 | 100 to 500
O=C(OCCCc1ccccc1)c1cnc(N2CCNCC2)c(Cl)c1 [Example 23, 3-phenylpropyl 5-chloro-6-piperazin-1-yl-pyridine-3-carboxylate;hydrochloride] | 100 to 500 | 100 to 500
Cc1ccc(COC(=O)c2cnc(N3CCNCC3)c(Cl)c2)cc1 [Example 24, p-tolylmethyl 5-chloro-6-piperazin-1-yl-pyridine-3-carboxylate;hydrochloride] | 5 to 100 | 100 to 500
N#Cc1cc2ccccc2nc1N1CCNCC1 [Example 39, 2-piperazin-1-ylquinoline-3-carbonitrile; hydrochloride] | 5 to 100 | 100 to 500
Clc1nc2ccccc2nc1N1CCNCC1 [Example 46, 2-chloro-3-piperazin-1-yl-quinoxaline;hydrochloride] | < 5 | 100 to 500
Cc1cccc2cc(Cl)c(N3CCNCC3)nc12 [Example 59, 3-chloro-8-methyl-2-piperazin-1-yl-quinoline;hydrochloride] | < 5 | 100 to 500
Brc1cc2ccccc2nc1N1CCNCC1 [Example 43, 3-bromo-2-piperazin-1-yl-quinoline;hydrochloride] | < 5 | 100 to 500
Cc1cc2ccccc2nc1N1CCNCC1 [Example 38, 3-methyl-2-piperazin-1-yl-quinoline; hydrochloride] | 5 to 100 | 100 to 500
C[C@@H]1CN(c2nc3ccccc3nc2Cl)CCN1 [Example 49, hydrochloride] | 5 to 100 | 100 to 500
Clc1ccc2nc(N3CCNCC3)c(Br)cc2c1 [Example 54, 3-bromo-6-chloro-2-piperazin-1-yl-quinoline; hydrochloride] | < 5 | 100 to 500
FC(F)(F)c1cnc(N2CCCNCC2)c(Cl)c1 [Example 6, 1-[3-chloro-5-(trifluoromethyl)-2-pyridyl]-1,4-diazepane] | 100 to 500 | 100 to 500
FC(F)(F)c1ccc(N2CCNCC2)c(Cl)c1 [Example 20, 1-[2-chloro-4-(trifluoromethyl)phenyl]piperazine; hydrochloride] | 5 to 100 | 100 to 500

Structure (SMILES) | EC50 (E. coli BW25113) [µM] | EC90 [1] [µM]
O=C(OCCc1ccc(Cl)cc1)c1cnc(N2CCNCC2)c(Cl)c1 [Example 26, 2-(4-chlorophenyl)ethyl 5-chloro-6-piperazin-1-yl-pyridine-3-carboxylate;hydrochloride] | 100 to 500 | 100 to 500
COc1ccc(COC(=O)c2cnc(N3CCNCC3)c(Cl)c2)cc1 [Example 31, (4-methoxyphenyl)methyl 5-chloro-6-piperazin-1-yl-pyridine-3-carboxylate;hydrochloride] | 5 to 100 | 100 to 500
O=C(OCc1ccccc1)c1cnc(N2CCNCC2)c(Cl)c1 [Example 22, benzyl 5-chloro-6-piperazin-1-yl-pyridine-3-carboxylate;hydrochloride] | 5 to 100 | 100 to 500
O=C(NCc1ccc(Cl)cc1)c1cnc(N2CCNCC2)c(Cl)c1 [Example 33, 5-chloro-N-[(4-chlorophenyl)methyl]-6-piperazin-1-yl-pyridine-3-carboxamide;hydrochloride] | 5 to 100 | 100 to 500
Cc1ccc2nc(Cl)c(N3CCNCC3)cc2c1 [Example 42, 2-chloro-6-methyl-3-piperazin-1-yl-quinoline;hydrochloride] | 5 to 100 | 100 to 500
Clc1nc2ccccc2nc1N1CC2CC(C1)N2 [Example 83, 2-chloro-3-(3,6-diazabicyclo[3.1.1]heptan-3-yl)quinoxaline; trifluoromethanesulfonic acid] | 100 to 500 | 100 to 500
Cc1c(Cl)ccc2cc(Cl)c(N3CCNCC3)nc12 [Example 98, 3,7-dichloro-8-methyl-2-piperazin-1-yl-quinoline;hydrochloride] | < 5 | 5 to 100
CCN1CCN(c2nc3ccccc3nc2Cl)CC1 [Example 9, 2-chloro-3-(4-ethylpiperazin-1-yl)quinoxaline;hydrochloride] | 5 to 100 | 100 to 500
Clc1cc2cc(-c3ccccc3)ccc2nc1N1CCNCC1 [Example 106, 3-chloro-6-phenyl-2-piperazin-1-yl-quinoline;hydrochloride] | 5 to 100 | 5 to 100
O=C(OCc1ccc(Cl)cc1)c1cnc(N2CCNCC2)c(Cl)c1 [Example 25, (4-chlorophenyl)methyl 5-chloro-6-piperazin-1-yl-pyridine-3-carboxylate;hydrochloride] | 5 to 100 | 100 to 500
Clc1cc2ccccc2nc1N1CCCNCC1 [Example 11, 3-chloro-2-(1,4-diazepan-1-yl)quinoline] | 5 to 100 | 100 to 500
Brc1cnc(N2CCNCC2)c2ccccc12 [Example 44, 4-bromo-1-piperazin-1-yl-isoquinoline;hydrochloride] | 100 to 500 | 5 to 100
Clc1cc2cc(-c3cccc4c3CNC4)ccc2nc1N1CCNCC1 [Example 134, 3-chloro-6-isoindolin-4-yl-2-piperazin-1-yl-quinoline;dihydrochloride] | < 5 | 5 to 100
O=C(OCCCc1ccc(Cl)cc1)c1cnc(N2CCNCC2)c(Cl)c1 [Example 27, 3-(4-chlorophenyl)propyl 5-chloro-6-piperazin-1-yl-pyridine-3-carboxylate;hydrochloride] | 100 to 500 | 100 to 500
COc1nc2ccccc2nc1N1CCNCC1 [Example 82, 2-methoxy-3-piperazin-1-yl-quinoxaline; 2,2,2-trifluoroacetic acid] | 5 to 100 | 100 to 500
Clc1cc2ccccc2nc1N1CCNCC1 [Example 37, 3-chloro-2-piperazin-1-yl-quinoline; hydrochloride] | < 5 | 5 to 100
FC(F)(F)c1ccc2nc(N3CCNCC3)c(Br)cc2c1 [Example 53, 3-bromo-2-piperazin-1-yl-6-(trifluoromethyl)quinoline; hydrochloride] | 5 to 100 | 100 to 500
FC(F)(F)c1cnc(N2CCNCC2)c(Cl)c1 [Example 14, 1-[3-chloro-5-(trifluoromethyl)-2-pyridyl]piperazine; hydrochloride] | 5 to 100 | 100 to 500
